Patent US20050095270A1, “Drug delivery to the inner ear and methods of using same” (priority 2003, published 2005)
Where a SMILES comes first, the peptide text is derived from it. The star is where a group is joined. Cbz = O=C(OCc1ccccc1)*; CH2F = FC*

Tests used:
[1] = system: hair cells of organ of Corti; test: Mitochondrial function and hair cell survival in organ of Corti treated with cisplatin; format: cell-based; details: cisplatin treatment alone (FIGS. 3B, 3E)
Excerpt: FIGS. 3A-3F are fluorescent micrographs showing mitochondrial function in hair cells. Cells with healthy and functioning mitochondria stain red and are depicted in 3D, 3E and 3F. The presence of hair cells are shown in green and depicted in 3A, 3B and 3C. FIGS. 3A and 3D represent untreated controls. FIGS. 3B and 3E show an organ of Corti treated with the chemotherapeutic agent cisplatin. […] FIGS. 3C and 3F show an organ of Corti pretreated with an adenovector with bcl2 expression followed by cisplatin treatment.

[2] = system: inner ear; test: Hearing by auditory brainstem response after round window injection of vector; format: in vivo, mouse; details: for protection of hearing / prevention of inner ear trauma by caspase inhibitor: larger volumes of fluid (greater than about 10% of total inner ear volume), hydraulic/mechanical injury
[3] = molecular target: cathepsin B (Homo sapiens, UniProt P07858); details: in vitro and in tissue culture cells at concentrations used to demonstrate the involvement of caspases; cited from earlier work

SMILES | hair cells and mitochondrial function in organ of Corti [1] | protection of hearing / prevention of inner ear trauma by caspase inhibitor [2] | protection of hearing / prevention of inner ear trauma by caspase inhibitor ([2]; listed as pancaspase inhibitor) | hearing loss with pancaspase inhibitor added to the vector composition ([2]; round window, injection volumes up to 3 μL, zVAD-FMK 1 mM, 2 μL with 1 μL vector) | cathepsin B activity inhibition [3]
N.N.[Cl][Pt][Cl] [cisplatin] | loss of cells and loss of mitochondrial function |  |  |  | 
CC(C)[C@H](NC(=O)OCc1ccccc1)C(=O)N[C@@H](C)C(=O)N[C@@H](CC(=O)O)C(=O)CF [zVAD-FMK, N-benzyloxycarbonyl-Val-Ala-Asp-fluoromethylketone] (Cbz-Val-Ala-Asp-CH2F) |  | can prevent inner ear trauma | protected hearing | only minimal loss of hearing | inhibit efficiently cathepsin B activity
